According to ChEMBL document CHEMBL1201862, “PubChem BioAssay data set” (2004):
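Five concentrations, 48 hours, 96-well plates. GI50 is the concentration that inhibits growth by half.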 Active and inactive are the calls of the source. Rule as the data show it: active = GI50 up to about 1.1 µM and inactive = higher.

Columns and labels:
Experiment in all cases: inhibition of tumour cell growth, NCI panel, 48 h
HCT-15 = system: HCT-15
U-251 = system: U-251
CAKI-1 = system: CAKI-1
HCC 2998 = system: HCC 2998
K562 = system: K562
SK-MEL-2 = system: SK-MEL-2
Malme-3M = system: Malme-3M
MDA-N = system: MDA-N
BT-549 = system: BT-549
NCI-H460 = system: NCI-H460
A498 = system: A498
OVCAR-4 = system: OVCAR-4
EKVX = system: EKVX
SF-539 = system: SF-539
HOP-62 = system: HOP-62
HOP-92 = system: HOP-92
MDA-MB-435 = system: MDA-MB-435
SNB-75 = system: SNB-75
COLO 205 = system: COLO 205
SNB-78 = system: SNB-78

Cc1cc(C2(c3cc(C)c(O)c4ncccc34)OC(=O)c3ccccc32)c2cccnc2c1O
GI50 (HCT-15): < 0.001 µM
GI50 (U-251): 0.0288 µM (active)
GI50 (CAKI-1): 0.00953 µM (active)
GI50 (HCC 2998): 0.0468 µM (active)
GI50 (K562): 0.0776 µM (active)
GI50 (SK-MEL-2): 0.262 µM (active)
GI50 (Malme-3M): 1 µM (active)
GI50 (MDA-N): 0.00925 µM (active)
GI50 (BT-549): 0.031 µM (active)
GI50 (NCI-H460): < 0.001 µM (active)
GI50 (A498): 1.47 µM (inactive)
GI50 (OVCAR-4): 0.067 µM (active)
GI50 (EKVX): 0.0203 µM (active)
GI50 (SF-539): 0.0376 µM (active)
GI50 (HOP-62): 0.0217 µM (active)
GI50 (HOP-92): 0.252 µM (active)
GI50 (MDA-MB-435): 0.0682 µM (active)
GI50 (SNB-75): 0.069 µM (active)
GI50 (COLO 205): 0.67 µM (active)

CC1CC(Br)C(=O)O1 (stereo unspecified)
GI50 (HCT-15): > 100 µM
GI50 (U-251): > 100 µM (inactive)
GI50 (CAKI-1): > 100 µM (inactive)
GI50 (HCC 2998): > 100 µM (inactive)
GI50 (K562): 47 µM (inactive)
GI50 (SK-MEL-2): > 100 µM (inactive)
GI50 (Malme-3M): > 100 µM (inactive)
GI50 (MDA-N): > 100 µM (inactive)
GI50 (BT-549): > 100 µM (inactive)
GI50 (NCI-H460): > 100 µM (inactive)
GI50 (A498): > 100 µM (inactive)
GI50 (OVCAR-4): > 100 µM (inactive)
GI50 (EKVX): > 100 µM (inactive)
GI50 (SF-539): > 100 µM (inactive)
GI50 (HOP-62): > 100 µM (inactive)
GI50 (HOP-92): > 100 µM (inactive)
GI50 (MDA-MB-435): > 100 µM (inactive)
GI50 (SNB-75): 70 µM (inactive)
GI50 (COLO 205): > 100 µM (inactive)

C/C=C1/CCC2c3[nH]c4ccccc4c3CCN2C1 (stereo unspecified)
GI50 (U-251): > 100 µM (inactive)
GI50 (CAKI-1): 37.2 µM (inactive)
GI50 (K562): 32 µM (inactive)
GI50 (SNB-78): > 100 µM (inactive)
GI50 (SK-MEL-2): > 100 µM (inactive)
GI50 (Malme-3M): 0.256 µM (active)
GI50 (NCI-H460): > 100 µM (inactive)
GI50 (A498): > 100 µM (inactive)
GI50 (OVCAR-4): 42 µM (inactive)
GI50 (EKVX): > 100 µM (inactive)
GI50 (SF-539): > 100 µM (inactive)
GI50 (HOP-62): > 100 µM (inactive)
GI50 (HOP-92): 24.2 µM (inactive)
GI50 (SNB-75): 66.4 µM (inactive)

CC/C(Cl)=N\OC(=O)Nc1ccc(OC)c(C)c1
GI50 (HCT-15): 6.34 µM
GI50 (U-251): 45.3 µM (inactive)
GI50 (CAKI-1): 0.832 µM (active)
GI50 (HCC 2998): 19.6 µM (inactive)
GI50 (K562): 15.7 µM (inactive)
GI50 (SK-MEL-2): 19 µM (inactive)
GI50 (Malme-3M): 11.4 µM (inactive)
GI50 (MDA-N): 18.7 µM (inactive)
GI50 (BT-549): 12.9 µM (inactive)
GI50 (NCI-H460): 41.2 µM (inactive)
GI50 (A498): 26.5 µM (inactive)
GI50 (OVCAR-4): 16.2 µM (inactive)
GI50 (EKVX): 3.15 µM (inactive)
GI50 (SF-539): 17.4 µM (inactive)
GI50 (HOP-62): 34.4 µM (inactive)
GI50 (HOP-92): 2.82 µM (inactive)
GI50 (MDA-MB-435): 34.2 µM (inactive)
GI50 (SNB-75): 80 µM (inactive)
GI50 (COLO 205): 15.1 µM (inactive)
